Source: patent US11293927B2, “Screening methods for PARP modulators” (Ribon Therapeutics, Inc., priority 2018, dated 2022)

What was measured:
PARP15 = molecular target: T1, PARP15 (Homo sapiens, UniProt Q460N3); test: In vitro TR-FRET probe displacement assay (Probe C), PARP15; format: binding; conditions: TR-FRET displacement of Probe C, PARP15 residues 481-678
T1 construct: made in house; host or cells: Sf9
T1 sequence (Q460N3 481-678): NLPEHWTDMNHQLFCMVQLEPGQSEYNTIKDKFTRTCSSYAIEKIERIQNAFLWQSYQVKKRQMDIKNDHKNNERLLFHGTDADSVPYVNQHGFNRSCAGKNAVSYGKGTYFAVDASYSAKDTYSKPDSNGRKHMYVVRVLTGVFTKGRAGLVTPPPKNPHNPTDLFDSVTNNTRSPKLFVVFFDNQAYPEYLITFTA
Method: A portion of PARP15 (residues 481 to 678 of NP_689828.1 (SEQ ID NO: 5), GenBank Accession No. NM_152615) was overexpressed in Sf9 cells. An N-terminal fusion tag, […] (SEQ ID NO: 10), was used to purify the protein from cell lysates. The fusion tag was left on the protein for use in the probe displacement assay.
(§1) Displacement of a Probe C binding to monoPARP active sites was measured using a time-resolved fluorescence resonance energy transfer (TR-FRET) assay. 20 nL of a dose response curve of each test compound was spotted in black 384-well polystyrene proxiplates (Perkin Elmer) using a Mosquito (TTP Labtech). Reactions were performed in a 8 μL volume by adding 6 μL of the monoPARP and Probe C in assay buffer (20 mM HEPES pH=8, 100 mM NaCl, 0.1% bovine serum albumin, 2 mM DTT and 0.002% Tween20), incubating with test compound at 25° C. for 30 min, then adding 2 μL of ULight-streptavidin and LANCE Eu-W 1024 Anti-6×His (Perkin Elmer). Binding reactions were equilibrated at 25° C. for an additional 30 min, then read on an Envision platereader equipped with a LANCE/DELFIA top mirror (Perkin Elmer) using excitation of 320 nm and emission of 615 nm and […] with a 90 μs delay. The ratio of the 665/615 nm emission were calculated for each well to determine the amount of complex of monoPARP and Probe C in each well. […]

PARP16 = molecular target: T2, PARP16 (Homo sapiens, UniProt Q8N5Y8); test: In vitro TR-FRET probe displacement assay (Probe C), PARP16; format: binding; conditions: TR-FRET displacement of Probe C, PARP16 residues 5-279
T2 construct: made in house; host or cells: E. coli
T2 sequence (Q8N5Y8 5-279 isoform Q8N5Y8-3): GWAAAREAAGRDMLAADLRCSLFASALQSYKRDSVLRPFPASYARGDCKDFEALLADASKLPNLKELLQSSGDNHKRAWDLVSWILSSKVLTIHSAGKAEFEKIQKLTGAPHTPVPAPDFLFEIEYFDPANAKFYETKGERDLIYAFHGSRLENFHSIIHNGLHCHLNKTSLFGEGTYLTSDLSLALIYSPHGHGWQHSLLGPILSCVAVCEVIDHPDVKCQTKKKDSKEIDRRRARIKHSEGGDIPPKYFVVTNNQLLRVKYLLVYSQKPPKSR
Method: A portion of PARP16 (residues 5 to 279 of NP_060321.3 (SEQ ID NO: 6), GenBank Accession No. NM_017851) was overexpressed in E. coli cells. An N-terminal fusion tag, […] (SEQ ID NO: 9), was used to purify the protein from cell lysates. The fusion tag was left on the protein for use in the probe displacement assay.
as §1, with “performed in an 8 μL” for “performed in a 8 μL”, “μL of ULight-anti 6×His and LANCE” for “μL of ULight-streptavidin and LANCE”, “Eu-W 1024 labeled streptavidin (Perkin Elmer).” for “Eu-W 1024 Anti-6×His (Perkin Elmer).”

Compound: O=c1[nH]ncc(N2Cc3ccc(OC4CCNCC4)cc3C2)c1C(F)(F)F [Compound A, 5-[5-(Piperidin-4-yloxy)-2,3-dihydro-1H-isoindol-2-yl]-4-(trifluoromethyl)-2,3-dihydropyridazin-3-one]
- IC50 (PARP15): 60 nM
- IC50 (PARP16): 100 nM
